Data: patent US20070179161A1, “Pyrazolopyrimidine compounds and their use in medicine” (VERNALIS (CAMBRIDGE) LIMITED., priority 2003, published 2007)
Read-outs that look alike come from different tables or passages of the source.

What was measured:
[1] = biological target: CDK-2 enzyme, complexed with cyclin A (Homo sapiens, UniProt P24941); test: CDK2 enzyme inhibition assay (33P phosphorylation of peptide […], filter plate); assay type: biochemical; conditions: CDK-2/cyclin A, 0.1 mM ATP, 40 min at 30° C.
Summary of the method: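 Cyclin A–complexed CDK2 (0.4 U/ml) incubated with inhibitor, 0.03 mM peptide, 0.1 mM ATP plus 33P-γ-ATP in HEPES pH 7.5, 7.5 mM Mg acetate, 0.1 mg/ml BSA, 40 min at 30 °C. Stopped with phosphoric acid; phosphorylated peptide captured on filter plates and counted by scintillation.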

[2] = biological target: T1, GST-Chk1 enzyme (Homo sapiens, UniProt O14757); test: Chk1 kinase inhibition assay (33P phosphorylation of Chktide, filter plate); assay type: biochemical; conditions: 0.01 mM ATP, 11 nM GST-Chk1, 40 minutes at 30° C.; read-out: Chk1 IC50
T1 sequence (O14757 1-476): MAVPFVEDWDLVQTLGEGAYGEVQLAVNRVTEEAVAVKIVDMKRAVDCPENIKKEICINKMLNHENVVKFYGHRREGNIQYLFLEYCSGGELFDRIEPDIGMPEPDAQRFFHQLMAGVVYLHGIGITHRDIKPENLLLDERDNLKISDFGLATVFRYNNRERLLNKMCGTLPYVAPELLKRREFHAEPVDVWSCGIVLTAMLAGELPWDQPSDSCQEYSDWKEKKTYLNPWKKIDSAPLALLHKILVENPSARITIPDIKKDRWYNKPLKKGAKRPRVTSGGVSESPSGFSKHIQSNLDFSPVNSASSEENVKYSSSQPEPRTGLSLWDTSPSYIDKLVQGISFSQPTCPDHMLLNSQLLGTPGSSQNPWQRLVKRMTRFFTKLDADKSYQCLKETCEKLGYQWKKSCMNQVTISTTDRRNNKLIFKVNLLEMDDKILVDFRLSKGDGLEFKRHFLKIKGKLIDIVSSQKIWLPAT
Summary of the method: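 Inhibitor and enzyme reacted 40 min at 30 °C, then stopped with 50 mM phosphoric acid. Phosphorylated peptide captured on filter plates and quantified by scintillation counting.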

[3] = Cell growth inhibition assay: cytotoxicity by sulforhodamine B (SRB) assay; assay type: cell-based; conditions: 96 h
Description: B. Cell Growth Inhibition Assay:
• 1) Determine cell number by haemocytometer. • 2) Using an 8 channel multipipettor, add 160 μl of the cell suspension ([…] or 2×10^4 cells/ml) to each well of a 96-well microtitre plate. • 3) Incubate overnight at 37° C. in a CO2 incubator. Day 2 • 4) Stock solutions of drugs are prepared, and serial dilutions of each drug are performed in medium to give final concentrations in wells. • 5) Using a multipipettor, 40 μl of drug (at 5× final concentration) is added to quadruplicate wells. • 6) Control wells are at either side of the 96 well plates, where 40 μl of medium is added. • 7) Incubate plates in CO2 incubator for 4 days Day 6 • 8) Tip off medium into sink and immerse plate slowly into 10% ice cold trichloroacetic acid (TCA). Leave for about 30 mins on ice. • 9) Wash plates three times in tap water by immersing the plates into baths of tap water and tipping it off. • 10) Dry in incubator. • 11) Add 100 μl of 0.4% SRB in 1% acetic acid to each well (except the last row right hand)of the 96 well plate, this is the 0% control, ie no drug, no stain. The first row will be the 100% control with no drug, but with stain). Leave for 5 mins. • 12) Wash off unbound SRB stain with four washes of 1% acetic acid. • 13) Dry plates in incubator. • 14) Solubilise SRB using 100 μl of 10 mM Tris base and put plates on plate shaker for 5 mins. • 15) Determine absorbance at 540 nm using a plate reader. Calculate mean absorbance for quadruplicate wells and express as a percentage of value for control, untreated wells.
Plot % absorbance values versus log drug concentration and determine the IC50.

[4] = biological target: T2, PDK1 enzyme (Homo sapiens, UniProt O15530); test: PDK1 kinase inhibition assay (33P phosphorylation of synthetic peptide, filter plate); assay type: biochemical; conditions: 0.01 mM ATP, 60 min at 30° C.; read-out: PDK1 IC50
T2 sequence (O15530 1-556): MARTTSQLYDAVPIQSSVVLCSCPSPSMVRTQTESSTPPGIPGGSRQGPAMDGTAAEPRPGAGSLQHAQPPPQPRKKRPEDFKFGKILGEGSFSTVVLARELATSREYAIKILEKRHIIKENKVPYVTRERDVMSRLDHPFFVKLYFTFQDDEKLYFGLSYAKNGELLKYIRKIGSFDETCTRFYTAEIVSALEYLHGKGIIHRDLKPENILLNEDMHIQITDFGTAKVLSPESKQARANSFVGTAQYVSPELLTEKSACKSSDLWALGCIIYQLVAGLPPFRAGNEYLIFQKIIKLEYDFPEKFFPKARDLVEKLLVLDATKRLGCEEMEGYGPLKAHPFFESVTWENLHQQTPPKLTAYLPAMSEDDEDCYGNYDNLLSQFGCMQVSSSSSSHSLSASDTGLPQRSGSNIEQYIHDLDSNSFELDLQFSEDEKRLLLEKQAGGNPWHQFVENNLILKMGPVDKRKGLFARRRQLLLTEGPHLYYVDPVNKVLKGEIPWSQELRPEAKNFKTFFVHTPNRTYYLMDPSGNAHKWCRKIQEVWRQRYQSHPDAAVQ
Summary of the method: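 PDK1 and inhibitor incubated 60 min at 30° C with 0.01 mM ATP plus 33P-γ-ATP, 0.075 mM peptide, 7.5 mM Mg acetate, 0.1 mg/ml BSA in 0.05 M Tris.HCl pH 7.5. Stopped with phosphoric acid; phosphorylated peptide captured on filter plate and counted by scintillation.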

[5] = SRB assay, 4 days with drug, cell line not named, read-out: GI50

**Q.** Which IC50 [1] does the source give for CN(C)S(=O)(=O)c1ccc(Nc2cc(O[C@H]3CCNC3)nc3c(Cl)cnn23)cc1 [Example 196] here?
**A.** 0.36 µM

**Q.** And the IC50 [2]?
**A.** 4.19 µM

**Q.** What about the GI50 [3, 5] of the same compound?
**A.** 1 µM

**Q.** For N[C@H]1CC[C@H](Nc2cc(Nc3cccc(Cl)c3)n3ncc(Cl)c3n2)CC1 [Example 192], which IC50 [4] is on record?
**A.** 3.24 µM

**Q.** And the IC50 [1]?
**A.** 0.009 µM

**Q.** What about the IC50 [2] of the same compound?
**A.** 2.14 µM

**Q.** What about the GI50 [3, 5] of the same compound?
**A.** 0.2 µM

**Q.** What does the source list for CC(C)c1cnn2c(Nc3ccc(S(=O)(=O)N(C)C)cc3)cc(N[C@H]3CCNC3)nc12 [Example 194]?
**A.** IC50 [4]: 4.42 µM; IC50 [1]: 0.073 µM; IC50 [2]: 0.21 µM; GI50 [3, 5]: 0.59 µM

**Q.** Which results are given for CSc1cnn2c(Nc3ccc(S(=O)(=O)N(C)C)cc3)cc(N[C@H]3CC[C@H](N)CC3)nc12 [Example 197]?
**A.** IC50 [1]: 0.055 µM; GI50 [3, 5]: 0.58 µM

**Q.** With N[C@H]1CC[C@H](Nc2cc(Nc3ccc(Oc4cncc(Cl)c4)cc3)n3ncc(Cl)c3n2)CC1 [Example 191] as the compound, how does the IC50 [1] read?
**A.** 0.018 µM

**Q.** And the GI50 [3, 5]?
**A.** 0.04 µM

**Q.** For N[C@H]1CC[C@H](Nc2cc(Nc3ccc(Oc4ccccc4)cc3)n3ncc(Br)c3n2)CC1 [Example 181], which IC50 [4] is on record?
**A.** 109 µM

**Q.** What about the IC50 [1] of the same compound?
**A.** 0.101 µM

**Q.** And the IC50 [2]?
**A.** 1 µM

**Q.** What about the GI50 [3, 5] of the same compound?
**A.** 0.09 µM

**Q.** What does the source list for CCN[C@H]1CC[C@H](Nc2cc(Nc3ccc(S(=O)(=O)N(C)C)cc3)n3ncc(C(C)C)c3n2)CC1 [Example 147]?
**A.** IC50 [4]: 10 µM; IC50 [1]: 0.098 µM; IC50 [2]: 4 µM; GI50 [3]: 1 µM

**Q.** What does the source list for CSc1cnn2c(Nc3ccc(Oc4cncc(Cl)c4)cc3)cc(N[C@H]3CC[C@H](N)CC3)nc12 [Example 198]?
**A.** IC50 [4]: 4.48 µM; IC50 [1]: 0.018 µM; IC50 [2]: 2.08 µM; GI50 [3, 5]: 0.31 µM

**Q.** Which IC50 [4] does the source give for CN(C)S(=O)(=O)c1ccc(Nc2cc(N[C@H]3CC[C@H](N)CC3)nc3c(Br)cnn23)cc1Cl [Example 180] here?
**A.** 2 µM

**Q.** What about the IC50 [1] of the same compound?
**A.** 0.002 µM

**Q.** And the IC50 [2]?
**A.** 0.83 µM

**Q.** And the GI50 [3]?
**A.** 0.33 µM

**Q.** Which IC50 [4] does the source give for CN(C)S(=O)(=O)c1ccc(Nc2cc(O[C@H]3CC[C@H](N)CC3)nc3c(Cl)cnn23)cc1 [Example 168] here?
**A.** 15.2 µM

**Q.** And the IC50 [1]?
**A.** 0.014 µM

**Q.** And the IC50 [2]?
**A.** 5 µM

**Q.** And the GI50 [3, 5]?
**A.** 0.21 µM

**Q.** Which IC50 [4] does the source give for CCN(CC)C(=O)COc1cc(Nc2ccc(S(=O)(=O)N(C)C)cc2)n2ncc(C(C)C)c2n1 [Example 88] here?
**A.** > 200 µM

**Q.** What about the IC50 [1] of the same compound?
**A.** 0.419 µM

**Q.** And the IC50 [2]?
**A.** > 200 µM

**Q.** For CCN(CC)[C@H]1CC[C@H](Nc2cc(Nc3ccc(S(=O)(=O)N(C)C)cc3)n3ncc(C(C)C)c3n2)CC1 [Example 100], which IC50 [4] is on record?
**A.** 30.3 µM

**Q.** What about the IC50 [1] of the same compound?
**A.** 0.092 µM

**Q.** And the IC50 [2]?
**A.** 29.3 µM

**Q.** For CCc1cnn2c(Nc3ccc(S(C)(=O)=O)cc3)cc(N(C)C)nc12 [Example 45], which IC50 [4] is on record?
**A.** > 200 µM

**Q.** What about the IC50 [1] of the same compound?
**A.** 1.13 µM

**Q.** What about the IC50 [2] of the same compound?
**A.** > 200 µM

**Q.** Which results are given for CN(C)S(=O)(=O)c1ccc(Nc2cc(N[C@H]3CC[C@H](N)CC3)nc3c(-c4ccccc4)cnn23)cc1 [Example 163]?
**A.** IC50 [4]: 6 µM; IC50 [1]: 10 µM; IC50 [2]: 1.53 µM

**Q.** What does the source list for CN(C)S(=O)(=O)c1ccc(Nc2cc(N[C@H]3CC[C@H](N)CC3)nc3c(Cl)cnn23)cc1 [Example 148]?
**A.** IC50 [4]: 1.54 µM; IC50 [1]: 0.004 µM; IC50 [2]: 2 µM

**Q.** What does the source list for CC(C)c1cnn2c(Nc3ccc(S(=O)(=O)N(C)C)cc3)cc(C(=O)N3CCC(O)CC3)nc12 [Example 120]?
**A.** IC50 [4]: > 200 µM; IC50 [1]: 0.594 µM; IC50 [2]: > 200 µM

**Q.** Which IC50 [4] does the source give for CC(C)c1cnn2c(Nc3ccc(S(=O)(=O)N(C)C)cc3)cc(N[C@H]3CC[C@H](N(C)C)CC3)nc12 [Example 162] here?
**A.** 5 µM

**Q.** What about the IC50 [1] of the same compound?
**A.** 0.815 µM

**Q.** What about the IC50 [2] of the same compound?
**A.** 12 µM

**Q.** Which results are given for CC(C)c1cnn2c(Nc3ccc(S(=O)(=O)N(C)C)cc3)cc(C(=O)O)nc12 [Example 117]?
**A.** IC50 [4]: > 200 µM; IC50 [1]: 23.3 µM; IC50 [2]: > 200 µM

**Q.** What does the source list for CCc1cnn2c(Nc3ccc(C(N)=O)cc3)cc(Cl)nc12 [Example 149]?
**A.** IC50 [4]: 57 µM; IC50 [1]: 0.14 µM; IC50 [2]: 10 µM

**Q.** For CN(C)S(=O)(=O)c1ccc(Nc2cc(Cl)nc3c(C4CC4)cnn23)cc1 [Example 127], which IC50 [4] is on record?
**A.** 29.3 µM

**Q.** What about the IC50 [1] of the same compound?
**A.** 0.005 µM

**Q.** What about the IC50 [2] of the same compound?
**A.** > 200 µM
